Inconclusive results and toxic doses are left out. Cut-off read from the data, not from the text of the source: active = T/C of 150% or more; inactive = T/C below 125%.
Tested on: L1210 leukemia ip in BDF1 mice, survival T/C
Assay: NCI In Vivo Anticancer Drug Screen. Data for tumor model L1210 Leukemia (intraperitoneal) in B6D2F1 (BDF1) mice
Settings: endpoint: mean survival time, higher = longer survival
Method in brief: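 Tumor cells were implanted, animals were treated, and survival was followed. The result divides the treated measurement by the vehicle-control measurement.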

[1] = dose: 50.0 mg/kg/injection, schedule: Q01DX001 (ip), vehicle: saline
[2] = dose: 100.0 mg/kg/injection, schedule: Q01DX001 (ip), vehicle: carboxymethylcellulose (CMC)
[3] = dose: 100.0 mg/kg/injection, schedule: Q01DX001 (ip), vehicle: saline
[4] = dose: 200.0 mg/kg/injection, schedule: Q01DX001 (ip), vehicle: carboxymethylcellulose (CMC)
[5] = dose: 200.0 mg/kg/injection, schedule: Q01DX001 (ip), vehicle: saline
[6] = dose: 400.0 mg/kg/injection, schedule: Q01DX001 (ip), vehicle: carboxymethylcellulose (CMC)
[7] = dose: 400.0 mg/kg/injection, schedule: Q01DX001 (ip), vehicle: saline
[8] = dose: 50.0 mg/kg/injection, schedule: Q01DX009 (ip), vehicle: saline with Tween-80
[9] = dose: 100.0 mg/kg/injection, schedule: Q01DX009 (ip), vehicle: saline with Tween-80
[10] = dose: 100.0 mg/kg/injection, schedule: Q04DX003 (ip), vehicle: saline
[11] = dose: 100.0 mg/kg/injection, schedule: Q01DX009 (ip), vehicle: Klucel (hydroxypropylcellulose) (HPC)
[12] = dose: 100.0 mg/kg/injection, schedule: Q04DX003 (ip), vehicle: Klucel (hydroxypropylcellulose) (HPC)
[13] = dose: 200.0 mg/kg/injection, schedule: Q01DX009 (ip), vehicle: Klucel (hydroxypropylcellulose) (HPC)
[14] = dose: 200.0 mg/kg/injection, schedule: Q04DX003 (ip), vehicle: Klucel (hydroxypropylcellulose) (HPC)
[15] = dose: 400.0 mg/kg/injection, schedule: Q01DX009 (ip), vehicle: Klucel (hydroxypropylcellulose) (HPC)
[16] = dose: 400.0 mg/kg/injection, schedule: Q04DX003 (ip), vehicle: Klucel (hydroxypropylcellulose) (HPC)
[17] = dose: 12.5 mg/kg/injection, schedule: Q01DX009 (ip), vehicle: Klucel (hydroxypropylcellulose) (HPC)
[18] = dose: 25.0 mg/kg/injection, schedule: Q01DX009 (ip), vehicle: Klucel (hydroxypropylcellulose) (HPC)
[19] = dose: 50.0 mg/kg/injection, schedule: Q01DX009 (ip), vehicle: Klucel (hydroxypropylcellulose) (HPC)

Measured: T/C

Cc1ccc(S(=O)(=O)OC2CCCC3CC(=O)CCC32C)cc1 (stereo unspecified)
inactive: [1] 101 % of control | [2] 103 % of control | [3] 101 % of control | [4] 105 % of control | [5] 95 % of control | [6] 103 % of control | [7] 98 % of control

O=C(O)/C=C/C(=O)OCCBr
inactive: dose: 25.0 mg/kg/injection, schedule: Q04DX003 (ip), vehicle: saline 92 % of control | [8] 100 % of control | dose: 50.0 mg/kg/injection, schedule: Q04DX003 (ip), vehicle: saline 95 % of control | [9] 115 % of control | [10] 90 % of control | dose: 200.0 mg/kg/injection, schedule: Q01DX009 (ip), vehicle: saline with Tween-80 97 % of control

N#C/C(=C1/C(=O)c2ccccc2-c2c1cccc2[N+](=O)[O-])c1ccccc1
inactive: dose: 75.0 mg/kg/injection, schedule: Q01DX001 (ip), vehicle: carboxymethylcellulose (CMC) 92 % of control | dose: 150.0 mg/kg/injection, schedule: Q01DX001 (ip), vehicle: carboxymethylcellulose (CMC) 94 % of control | dose: 300.0 mg/kg/injection, schedule: Q01DX001 (ip), vehicle: carboxymethylcellulose (CMC) 97 % of control

N#CC12CCCCC(=O)N1C=Cc1ccccc12 (stereo unspecified)
inactive: [3] 96 % of control | [5] 96 % of control | [7] 93 % of control

CNC(=S)N/N=C/c1cnccn1
inactive: [1] 100 % of control | [3] 100 % of control | [5] 104 % of control

Cc1ccc(S(=O)(=O)OCC2C3C=CC(C3)C2COS(=O)(=O)c2ccc(C)cc2)cc1 (stereo unspecified)
inactive: [11] 92 % of control | [12] 95 % of control | [13] 97 % of control | [14] 98 % of control | [15] 98 % of control | [16] 95 % of control

CC1=C(c2ccccc2)OS(=O)(=O)NC1=O
inactive: [10] 100 % of control | dose: 200.0 mg/kg/injection, schedule: Q04DX003 (ip), vehicle: saline 97 % of control | dose: 400.0 mg/kg/injection, schedule: Q04DX003 (ip), vehicle: saline 101 % of control

O=S(=O)(O)CC1(CS(=O)(=O)O)COC1
inactive: [3] 95 % of control | dose: 100.0 mg/kg/injection, schedule: Q01DX009 (ip), vehicle: acetone 118 % of control | [5] 95 % of control | dose: 200.0 mg/kg/injection, schedule: Q01DX009 (ip), vehicle: acetone 106 % of control | [7] 96 % of control | dose: 400.0 mg/kg/injection, schedule: Q01DX009 (ip), vehicle: acetone 95 % of control

CC(=O)Nc1ccc(NC(=O)Nc2ccccc2F)cc1
inactive: [11] 98 % of control | [13] 96 % of control | [15] 102 % of control

COC(=O)C(C(=O)OC)c1c(N)n(C)c(=O)n(C)c1=O
inactive: dose: 100.0 mg/kg/injection, schedule: Q01DX001 (ip), vehicle: Klucel (hydroxypropylcellulose) (HPC) 93 % of control | dose: 200.0 mg/kg/injection, schedule: Q01DX001 (ip), vehicle: Klucel (hydroxypropylcellulose) (HPC) 100 % of control | dose: 400.0 mg/kg/injection, schedule: Q01DX001 (ip), vehicle: Klucel (hydroxypropylcellulose) (HPC) 100 % of control

C(=C/P(c1ccccc1)c1ccccc1)/P(c1ccccc1)c1ccccc1
inactive: dose: 75.0 mg/kg/injection, schedule: Q01DX001 (ip), vehicle: saline 108 % of control | dose: 150.0 mg/kg/injection, schedule: Q01DX001 (ip), vehicle: saline 98 % of control | dose: 300.0 mg/kg/injection, schedule: Q01DX001 (ip), vehicle: saline 93 % of control

O=C1C=CC(=O)N1c1ccc([N+](=O)[O-])cc1[N+](=O)[O-]
inactive: [17] 98 % of control | [18] 103 % of control | [19] 103 % of control | [11] 105 % of control

CC(C)(C)c1cc(O)cc(C(C)(C)C)c1
inactive: dose: 100.0 mg/kg/injection, schedule: Q04DX002 (ip), vehicle: saline with Tween-80 100 % of control | dose: 200.0 mg/kg/injection, schedule: Q04DX002 (ip), vehicle: saline with Tween-80 97 % of control | dose: 400.0 mg/kg/injection, schedule: Q04DX002 (ip), vehicle: saline with Tween-80 100 % of control

CC(Cl)CN(Cc1cc(CN(CC(C)Cl)CC(C)Cl)c(O)cc1O)CC(C)Cl (stereo unspecified)
inactive: dose: 12.5 mg/kg/injection, schedule: Q01DX001 (sc), vehicle: olive oil, sesame oil, peanut oil 102 % of control | dose: 12.5 mg/kg/injection, schedule: Q01DX015 (sc), vehicle: olive oil, sesame oil, peanut oil 95 % of control | dose: 25.0 mg/kg/injection, schedule: Q01DX001 (sc), vehicle: olive oil, sesame oil, peanut oil 100 % of control | dose: 25.0 mg/kg/injection, schedule: Q01DX015 (sc), vehicle: olive oil, sesame oil, peanut oil 110 % of control | dose: 50.0 mg/kg/injection, schedule: Q01DX001 (ip), vehicle: carboxymethylcellulose (CMC) 93 % of control | dose: 50.0 mg/kg/injection, schedule: Q01DX001 (sc), vehicle: olive oil, sesame oil, peanut oil 96 % of control | dose: 50.0 mg/kg/injection, schedule: Q01DX015 (sc), vehicle: olive oil, sesame oil, peanut oil 93 % of control | [2] 110 % of control | dose: 100.0 mg/kg/injection, schedule: Q01DX001 (sc), vehicle: olive oil, sesame oil, peanut oil 102 % of control | dose: 100.0 mg/kg/injection, schedule: Q01DX015 (sc), vehicle: olive oil, sesame oil, peanut oil 95 % of control | [4] 110 % of control | dose: 200.0 mg/kg/injection, schedule: Q01DX015 (sc), vehicle: olive oil, sesame oil, peanut oil 112 % of control | [6] 104 % of control | dose: 400.0 mg/kg/injection, schedule: Q01DX015 (sc), vehicle: olive oil, sesame oil, peanut oil 104 % of control | dose: 600.0 mg/kg/injection, schedule: Q01DX015 (sc), vehicle: olive oil, sesame oil, peanut oil 102 % of control

CC(=O)Nc1ccc(C=O)cc1[N+](=O)[O-]
inactive: [11] 101 % of control | [12] 100 % of control | [13] 104 % of control | [14] 100 % of control | [15] 94 % of control | [16] 100 % of control

CCN(CC)CC(O)CNc1ccnc2cc(Cl)ccc12 (stereo unspecified)
inactive: dose: 25.0 mg/kg/injection, schedule: Q01DX009 (ip), vehicle: saline with Tween-80 97 % of control | [8] 86 % of control | [9] 97 % of control

CCN(CC)C/C=C/C(C)Nc1ccnc2cc(Cl)ccc12 (stereo unspecified)
inactive: dose: 5.0 mg/kg/injection, schedule: Q04DX002 (ip), vehicle: saline with Tween-80 98 % of control | dose: 10.0 mg/kg/injection, schedule: Q04DX002 (ip), vehicle: saline with Tween-80 98 % of control | dose: 20.0 mg/kg/injection, schedule: Q04DX002 (ip), vehicle: saline with Tween-80 94 % of control

C[N+](C)(C)Cc1ccc2ccccc2c1Br
inactive: [1] 97 % of control

CCCCCCCCCC(=O)N/N=C/c1ccccc1Cl
inactive: [17] 112 % of control | [18] 113 % of control | [19] 104 % of control

CC(C)CC(CC(C)C)NCC(C)OC(=O)c1ccc(N(C)C)cc1 (stereo unspecified)
inactive: dose: 75.0 mg/kg/injection, schedule: Q01DX001 (ip), vehicle: other 101 % of control | dose: 150.0 mg/kg/injection, schedule: Q01DX001 (ip), vehicle: other 106 % of control

— PubChem BioAssay AID248 (DTP/NCI, 2004)
